Measurements reported in patent US20240245770A1, “COMPOSITIONS AND METHODS FOR TREATING NEUROMUSCULAR DISORDERS” (The Regents of the University of California, priority 2019, published 2024).

Legend:
[1] = test system: Oral squamous carcinoma cells (OSCCs) and Oral squamous stem cell carcinoma (OSCSCs); assay: NAC blocking of CDDP mediated cell death (PI staining, flow cytometry); format: cell-based, human; settings: NAC 20 mM, 24 hours, OSCCs and OSCSCs
Description: Testing and selection of the best NAC to be used in ALS treatment. […] Afterwards OSCCs and OSCSCs were detached, and the viability of cells was determined after PI staining followed by flow cytometric analysis. In this figure Forward and Side Scatters (Fs/ss) were assessed since decrease in the Fs/ss is seen in cells undergoing cell death.
Testing and selection of the best NAC to be used in ALS treatment. […] Afterwards OSCCs and OSCSCs were detached, and the viability of cells was determined after PI staining followed by flow cytometric analysis. In this figure the percentage of PI stained cells were assessed.

OSCSCs = assay: NAC blocking of H2O2 mediated cell death in OSCSCs; format: cell-based, human; settings: NAC 20 mM, 24 hours, FIG. 68

## CC(=O)N[C@@H](CS)C(=O)O [NAC, N-Acetyl-Cysteine]
[1]; FIG. 65
  CDDP mediated cell death, Forward and Side Scatters (Fs/ss): blocks CDDP mediated Cell death in Oral tumors
[1]; FIG. 66
  CDDP mediated cell death, percentage of PI stained cells: blocks CDDP mediated Cell death in Oral tumors
OSCSCs
  H2O2 mediated cell death (Fs/ss and PI positive cells): blocks H2O2 mediated Cell death in OSCSCs
